Assay results published in article PMC9743094, “Synthesis and Evaluation of Polymyxins Bearing Reductively Labile Disulfide-Linked Lipids” (Journal of Medicinal Chemistry, 2022).
Values after ≈ are worked out from the molar mass of the structure shown. Like-named read-outs stand apart in the source and are kept apart here. Starred links: 1 amine or outer side, 2 acyl side, 3 side chain; linkers in the order of their positions; H or OH if unused. Positions of bridges follow the written chain, without caps; N, C: chain ends. Non-standard residues stand in square brackets, D forms with d. Residues, ends and D or L forms follow the SMILES beside them. *: point of attachment. X2 = CC(C)CCCCC[C@@H](N[*:1])C(=O)[*:2]; S(3-Methylbutyl) = CC(C)CCS*; Dab = NCC[C@H](N)C(=O)O

Assays:
[1] = system: differentiated conditionally immortalized PTECs (ciPTECs, OAT-1); assay: ciPTEC toxicity assay (PrestoBlue); format: cell-based, human
In short: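 ciPTEC (OAT-1) cells were differentiated 24 h at 33 °C then 6 days at 37 °C before 24 h exposure at 37 °C to serially diluted compounds in serum-free medium. Viability by 10% PrestoBlue fluorescence (530/590 nm), relative to untreated cells. TC50 from nonlinear regression with bottom fixed at 0; triplicates.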

A. baumannii BAA-747 = format: cell-based
Method: (§1) Minimum inhibitory concentrations (MICs) on relevant Gram-negative bacteria were determined by broth microdilution, in accordance with CLSI guidelines. Indicated bacteria were taken from glycerol stocks and incubated overnight on blood agar at 37 °C. Well-isolated colonies were taken, suspended in TSB (5 mL), and grown to an OD600 of 0.5. Compounds to be tested were dissolved in DMSO (6.4 mg/mL), diluted in cation-adjusted Mueller–Hinton Broth (CAMHB) (12.5 and 20 μg/mL Mg^2+ and Ca^2+, respectively), and diluted serially on polypropylene microtiter plates. To the diluted compounds (50 μL per well) was added 50 μL of relevant bacterial suspension, to yield a final concentration of 10^6 CFU/mL. Plates were covered by adhesive gas-permeable membranes and incubated at 37 °C. MIC was read out as the lowest concentration that inhibited visual bacterial growth. Shown values are consistent results from at least duplicate experiments.
(§2) Bacterial strains used for MIC assays and extended MIC assessment
(§3) Strains: The following strains were obtained from BEI Resources, NIAID, NIH: E. Coli M0072, strain
(§4) Table S2. […] Values are given in μg/mL.
(§5) Species Strain ID Resistance Polymyxin B 18b 23a 24a

A. baumannii RUH-134 = format: cell-based
Method: as §1, §2, §3, §4, §5

E. coli 1793 = format: cell-based
Method: as §1, §2, §3, §4, §5

E. coli JS136 = format: cell-based
Method: as §1, §2, §3, §4, §5

E. coli M0072 = format: cell-based
Method: as §1, §2, §3, §4, §5

K. pneumoniae ATCC 29665 = format: cell-based
Method: as §1, §2, §3, §4, §5

K. pneumoniae KP1.53 = format: cell-based
Method: as §1, §2, §3, §4, §5

K. pneumoniae RC0045 = format: cell-based
Method: as §1, §2, §3, §4, §5

P. aeruginosa 2018-007 = format: cell-based
Method: as §1, §2, §3, §4, §5

P. aeruginosa 2251 = format: cell-based
Method: as §1, §2, §3, §4, §5

P. aeruginosa ATCC 10145 = format: cell-based
Method: as §1, §2, §3, §4, §5

P. aeruginosa M120 = format: cell-based
Method: as §1, §2, §3, §4, §5

A. baumanii (ATCC 17961) = format: cell-based
Method: as §1
(§6) Table S3. MIC values [µg/mL] and relative toxicity values for disulfide containing polymyxin derivative 18b and
(§7) non-disulfide containing analogue 45. […]

P. aeruginosa (PAO1) = format: cell-based
Method: as §1, §6, §7

[2] = system: A. baumannii (ATCC 19606); format: cell-based
In short: (§8)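 Broth microdilution per CLSI in cation-adjusted Mueller–Hinton Broth (12.5 μg/mL Mg^2+, 20 μg/mL Ca^2+), inoculum 10^6 CFU/mL final, 37 °C. MIC taken as lowest concentration with no visible growth, consistent across at least duplicate experiments.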

[3] = system: K. pneumoniae (ATCC 13883); format: cell-based
In short: as §8

[4] = system: P. aeruginosa (ATCC 27853); format: cell-based
In short: as §8

A. baumannii NRZ-00687 = format: cell-based
Method: as §1, §2, §3, §4, §5

E. coli (ATCC 25922) = format: cell-based; details: broth microdilution, CLSI, CAMHB, 10^6 CFU/mL, 37 °C, visual growth; triplicate experiments
In short: as §8

[5] = system: Red blood cells from defibrinated sheep blood; assay: Hemolysis assay; format: cell-based; details: 128 μg/mL, 1 h, 37 °C, absorbance 415 nm, normalized to 0.1% Triton-X100, triplicates
Method: Red blood cells from defibrinated sheep blood (Thermo Fisher Scientific) were centrifuged (400g for 15 min at 4 °C) and washed with PBS containing 0.002% Tween20 four times. The red blood cells were normalized to obtain an absorbance value between 2.5 and 3.0 at 415 nm to stay in the linear range of the assay with maximum sensitivity. A serial dilution of the compounds (128–4 μg/mL, 75 μL) was prepared in a 96-well plate. Each plate contained a positive control (0.1% Triton-X final concentration, 75 μL) and a negative control (buffer, 75 μL). The normalized blood cells (75 μL) were added, and the plates were incubated at 37 °C for 1 h while shaking at 500 rpm. After incubation, the plates were centrifuged (800g for 5 min at RT) and 25 μL of the supernatant was transferred to a second plate, containing 100 μL of PBS in each well. Absorbance was read-out at 415 nm. Values were corrected for background (negative control) and transformed to a percentage relative to the positive control. Results shown (Supporting Information Figure S2) are based on triplicate data.
Stability assessment in presence of glutathione
Figure S1. Compound stability upon incubation with low (5 μM) or high (5 mM) glutathione (GSH) concentration.
Compounds were incubated in PBS with the indicated concentration glutathione for 24 hours. Indicated data points are
based upon integration of HPLC UV data.
Figure S2. […]

[6] = broth microdilution, CLSI, CAMHB, 10^6 CFU/mL, 37 °C, visual growth, triplicate experiments
[7] = resistance indicator: Multiple, broth microdilution, CAMHB
[8] = resistance indicator: OXA-48, broth microdilution, CAMHB

CC(C)CCSSC[C@@H](N)C(=O)N[C@H](C(=O)N[C@@H](CCN)C(=O)N[C@H]1CCNC(=O)[C@H]([C@@H](C)O)NC(=O)[C@H](CCN)NC(=O)[C@H](CCN)NC(=O)[C@H](CC(C)C)NC(=O)[C@@H](Cc2ccccc2)NC(=O)[C@H](CCN)NC1=O)[C@@H](C)O [Compound 18b] (H-[dC](S(3-Methylbutyl))T[Dab][Dab][Dab][dF]L[Dab][Dab]T; lactam 4-C)
TC50, Day 1 [1]: 345 µM
ciPTEC Toxicity Index (relative to polymyxin B) [1]: 4.7
TC50, Day 2 ([1]; 24 h): 192 µM
MIC A. baumannii BAA-747 (A. baumannii BAA-747; BAA-747): 0.5 µg/mL (≈ 0.428 µM)
MIC A. baumannii RUH-134 (A. baumannii RUH-134; RUH-134): 1 µg/mL (≈ 0.856 µM)
MIC E. coli 1793 (E. coli 1793; 1793): 0.25 µg/mL (≈ 0.214 µM)
MIC E. coli JS136 (E. coli JS136; JS136): 0.5 µg/mL (≈ 0.428 µM)
MIC E. coli M0072 (E. coli M0072; M0072): 0.5 µg/mL (≈ 0.428 µM)
MIC K. pneumoniae ATCC 29665 (K. pneumoniae ATCC 29665; ATCC 29665): 0.5 µg/mL (≈ 0.428 µM)
MIC K. pneumoniae KP1.53 (K. pneumoniae KP1.53; KP1.53): 1 µg/mL (≈ 0.856 µM)
MIC K. pneumoniae RC0045 (K. pneumoniae RC0045; RC0045): 0.5 µg/mL (≈ 0.428 µM)
MIC P. aeruginosa 2018-007 (P. aeruginosa 2018-007; 2018-007): 2 µg/mL (≈ 1.71 µM)
MIC P. aeruginosa 2251 (P. aeruginosa 2251; 2251): 2 µg/mL (≈ 1.71 µM)
MIC P. aeruginosa ATCC 10145 (P. aeruginosa ATCC 10145; ATCC 10145): 2 µg/mL (≈ 1.71 µM)
MIC P. aeruginosa M120 (P. aeruginosa M120; M120): 2 µg/mL (≈ 1.71 µM)
MIC A. baumanii (ATCC 17961) (A. baumanii (ATCC 17961); ATCC 17961, 2 h): 0.25 µg/mL (≈ 0.214 µM)
MIC P. aeruginosa (PAO1) (P. aeruginosa (PAO1); PAO1, 2 h): 1 µg/mL (≈ 0.856 µM)

CC(C)CCCCC[C@@H](N)C(=O)N[C@H](C(=O)N[C@@H](CCN)C(=O)N[C@H]1CCNC(=O)[C@H]([C@@H](C)O)NC(=O)[C@H](CCN)NC(=O)[C@H](CCN)NC(=O)[C@H](CC(C)C)NC(=O)[C@@H](Cc2ccccc2)NC(=O)[C@H](CCN)NC1=O)[C@@H](C)O [Compound 45] (H-[X2]T[Dab][Dab][Dab][dF]L[Dab][Dab]T; lactam 4-C)
MIC A. baumannii (ATCC 19606) ([2]; ATCC 19606): 0.25 µg/mL (≈ 0.221 µM)
MIC K. pneumoniae (ATCC 13883) ([3]; ATCC 13883): ≤ 0.25 µg/mL
MIC P. aeruginosa (ATCC 27853) ([4]; ATCC 27853): 1 µg/mL (≈ 0.883 µM)
ciPTEC Toxicity Index (relative to polymyxin B) [1]: 2.0
TC50, Day 2 ([1]; 24 h): 82 µM
MIC A. baumannii NRZ-00687 (A. baumannii NRZ-00687; NRZ-00687): 0.5 µg/mL (≈ 0.442 µM)
MIC A. baumanii (ATCC 17961) (A. baumanii (ATCC 17961); ATCC 17961, 2 h): 0.25 µg/mL (≈ 0.221 µM)
MIC P. aeruginosa (PAO1) (P. aeruginosa (PAO1); PAO1, 2 h): 1 µg/mL (≈ 0.883 µM)

Polymyxin B [reference compound]
MIC A. baumannii (ATCC 19606) [2, 6]: 0.25 µg/mL
MIC E. coli (ATCC 25922) (E. coli (ATCC 25922)): 1 µg/mL
MIC K. pneumoniae (ATCC 13883) [3, 6]: 0.25 µg/mL
MIC P. aeruginosa (ATCC 27853) [4, 6]: 1 µg/mL
ciPTEC Toxicity Index (relative to polymyxin B) ([1]; TC50 expressed relative to polymyxin B, 24 h incubation, 37 °C, serum-free medium, PrestoBlue fluorescence, nonlinear regression, triplicate): 1.0
TC50, Day 1 ([1]; cell batch/analysis Day 1, ciPTEC, 24 h, 37 °C, PrestoBlue, non-linear regression with bottom constraint at 0, triplicates): 80 µM
TC50, Day 2 ([1]; cell batch/analysis Day 2, ciPTEC, 24 h, 37 °C, PrestoBlue, non-linear regression with bottom constraint at 0, triplicates): 41 µM
percent hemolysis [5]: below 5%
MIC A. baumannii BAA-747 (A. baumannii BAA-747; broth microdilution, CAMHB): 0.25 µg/mL
MIC A. baumannii NRZ-00687 (A. baumannii NRZ-00687; resistance indicator: NDM-2, broth microdilution, CAMHB): 0.25 µg/mL
MIC A. baumannii RUH-134 (A. baumannii RUH-134; [7]): 0.25 µg/mL
MIC E. coli 1793 (E. coli 1793; resistance indicator: NDM-1, broth microdilution, CAMHB): 0.063 µg/mL
MIC E. coli JS136 (E. coli JS136; [8]): 0.125 µg/mL
MIC E. coli M0072 (E. coli M0072; [7]): 0.125 µg/mL
MIC K. pneumoniae ATCC 29665 (K. pneumoniae ATCC 29665; broth microdilution, CAMHB): 0.25 µg/mL
MIC K. pneumoniae KP1.53 (K. pneumoniae KP1.53; resistance indicator: MDR, broth microdilution, CAMHB): 0.5 µg/mL
MIC K. pneumoniae RC0045 (K. pneumoniae RC0045; [8]): 0.25 µg/mL
MIC P. aeruginosa 2018-007 (P. aeruginosa 2018-007; resistance indicator: IMP-7, broth microdilution, CAMHB): 2 µg/mL
MIC P. aeruginosa 2251 (P. aeruginosa 2251; resistance indicator: VIM-2, broth microdilution, CAMHB): 1 µg/mL
MIC P. aeruginosa ATCC 10145 (P. aeruginosa ATCC 10145; broth microdilution, CAMHB): 1 µg/mL
MIC P. aeruginosa M120 (P. aeruginosa M120; resistance indicator: OXA-50, blaPAO, broth microdilution, CAMHB): 1 µg/mL
MIC A. baumanii (ATCC 17961) (A. baumanii (ATCC 17961); broth microdilution, CAMHB): 0.25 µg/mL
MIC P. aeruginosa (PAO1) (P. aeruginosa (PAO1); broth microdilution, CAMHB): 0.5 µg/mL
